pIC50: −log10 of the molar value.
Target: mTOR/GbL/Raptor (mTORC1) (Homo sapiens, UniProt P42345)
Assay: mTOR/GbL/Raptor (mTORC1) ELISA assay, phosphorylation of 4E-BP1
Assay type: biochemical
Details: 0.2 nM mTORC1, 40 uM ATP, 50 nM NHis-tagged 4E-BP1, 120 minutes; read-out: IC50 in this assay (mTORC1 ELISA)
Procedure: The measurement of mTORC1 enzyme activity was performed in an ELISA assay format following the phosphorylation of 4E-BP1 protein. All experiments were performed in the 384-well format. Generally, 0.5 μL DMSO containing varying concentrations of the test Compound was mixed with 15 μL enzyme solution. Kinase reactions were initiated with the addition of 15 μL of substrates-containing solution. The assay conditions were-as follows; 0.2 nM mTORC1, 40 uM ATPand 50 nM NHis-tagged4E-BP1 in20 mM Hepes, pH 7.2, 1 mM DTT, 50 mMNaC1, 10 mM MnC12, 0.02 mg/mL BSA, 0.01% CHAPS, 50 mM β-glycerophosphate. Following an incubation of 120 minutes at anibient temperature, 20 μL of the reaction volume was transferred to a Ni-Chelate-coated 384-well plate. The binding step of the 4E-BP1 protein proceeded for 60 minutes, followed by washing 4 times each with 50 uL of Tris-buffered saline solution (TBS). Anti-phospho-4E-BPl rabbit-IgG ([…]. 1:5000) in 5% BSA-TBST (0.2% Tween-20 in TBS) was added and further incubated for 60 minutes. Incubation with a secondary HRP-tagged anti-IgG was similarly performed after washing off the primary antibody (4 washes of 50 μL). Following the final wash step with TBST, 20 μL of SuperSignal ELISA Femto (Pierce Biotechnology) was added and the luminescence measured using an En Vision plate reader.

**Q.** With `Cc1cc(-c2nnc(N)s2)cc2c1OCCN(c1ncnc(C)c1C(C)C)C2` [Compound 173, 5-{9-methyl-4-[6-methyl-5-(1-methylethyl)pyrimidin-4-yl]-2,3,4,5-tetrahydro-1,4-benzoxazepin-7-yl}-1,3,4-thiadiazol-2-amine] as the compound, how does the pIC50 read?
**A.** ≥ 7.00

**Q.** How did the pIC50 turn out when `Cc1cc(-c2cnc3sc(N)nc3c2)cc2c1OCCN(c1nc(CNCCF)nc(C)c1C(C)C)C2` [Compound 126, 6-{4-[2-{[(2-fluoroethyl)amino]methyl}-6-methyl-5-(1-methylethyl)pyrimidin-4-yl]-9-methyl-2,3,4,5-tetrahydro-1,4-benzoxazepin-7-yl}[1,3]thiazolo[5,4-b]pyridin-2-amine] was run?
**A.** ≥ 7.00

**Q.** `C=Cc1c(C)ncnc1N1CCOc2c(C)cc(-c3cnc4sc(N)nc4c3)cc2C1` [Compound 115, 6-[4-(5-ethenyl-6-methylpyrimidin-4-yl)-9-methyl-2,3,4,5-tetrahydro-1,4-benzoxazepin-7-yl][1,3]thiazolo[5,4-b]pyridin-2-amine] was tested. Which pIC50 did it give?
**A.** ≥ 7.00

**Q.** `CCNCc1nc(C)c(C(C)C)c(N2CCOc3c(C)cc(-c4cnc5sc(N)nc5c4)cc3C2)n1` [Compound 158, 6-(4-{2-[(ethylamino)methyl]-6-methyl-5-(1-methylethyl)pyrimidin-4-yl}-9-methyl-2,3,4,5-tetrahydro-1,4-benzoxazepin-7-yl)[1,3]thiazolo[5,4-b]pyridin-2-amine] was tested. Which pIC50 did it give?
**A.** ≥ 7.00

**Q.** How did the pIC50 turn out when `CCCc1c(C)nc(N)nc1N1CCOc2c(C)cc(-c3cnc4sc(N)nc4c3)cc2C1` [Compound 41, 6-[4-(2-amino-6-methyl-5-propylpyrimidin-4-yl)-9-methyl-2,3,4,5-tetrahydro-1,4-benzoxazepin-7-yl][1,3]thiazolo[5,4-b]pyridin-2-amine] was run?
**A.** ≥ 7.00

**Q.** `Cc1cc(-c2cnc3sc(N)nc3c2)cc2c1OCCN(c1nc(C3CCCN3)nc(C)c1C(C)C)C2` (centres unmarked) [Compound 146, 6-{9-methyl-4-[6-methyl-5-(1-methylethyl)-2-pyrrolidin-2-ylpyrimidin-4-yl]-2,3,4,5-tetrahydro-1,4-benzoxazepin-7-yl}[1,3]thiazolo[5,4-b]pyridin-2-amine] was tested. Which pIC50 did it give?
**A.** ≥ 7.00

**Q.** `C=Cc1c(C)nc(N)nc1N1CCOc2c(C)cc(-c3cnc4sc(N)nc4c3)cc2C1` [Compound 9, 6-[4-(2-amino-5-ethenyl-6-methylpyrimidin-4-yl)-9-methyl-2,3,4,5-tetrahydro-1,4-benzoxazepin-7-yl][1,3]thiazolo[5,4-b]pyridin-2-amine] was tested. Which pIC50 did it give?
**A.** ≥ 7.00

**Q.** How did the pIC50 turn out when `Cc1cc(-c2cnc3sc(N)nc3c2)cc2c1OCCN(c1nc(N)nc3c1CC(C)(C)CC3)C2` [Compound 10, 4-[7-(2-amino[1,3]thiazolo[5,4-b]pyridin-6-yl)-9-methyl-2,3-dihydro-1,4-benzoxazepin-4(5H)-yl]-6,6-dimethyl-5,6,7,8-tetrahydroquinazolin-2-amine] was run?
**A.** ≥ 7.00

**Q.** With `COCCc1cnc(C)nc1N1CCOc2c(C)cc(-c3cnc4sc(N)nc4c3)cc2C1` [Compound 135, 6-(9-methyl-4-{2-methyl-5-[2-(methyloxy)ethyl]pyrimidin-4-yl}-2,3,4,5-tetrahydro-1,4-benzoxazepin-7-yl)[1,3]thiazolo[5,4-b]pyridin-2-amine] as the compound, how does the pIC50 read?
**A.** ≥ 7.00

**Q.** With `Cc1cc(-c2nnc(N)s2)cc2c1OCCN(c1ncncc1C(C)C)C2` [Compound 177, 5-{9-methyl-4-[5-(1-methylethyl)pyrimidin-4-yl]-2,3,4,5-tetrahydro-1,4-benzoxazepin-7-yl}-1,3,4-thiadiazol-2-amine] as the compound, how does the pIC50 read?
**A.** ≥ 7.00

**Q.** How did the pIC50 turn out when `CNc1ncnc(N2CCOc3c(C)cc(-c4cnc5sc(N)nc5c4)cc3C2)c1[N+](=O)[O-]` [Compound 148, 6-{9-methyl-4-[6-(methylamino)-5-nitropyrimidin-4-yl]-2,3,4,5-tetrahydro-1,4-benzoxazepin-7-yl}[1,3]thiazolo[5,4-b]pyridin-2-amine] was run?
**A.** 6.30 to 7.00

**Q.** How did the pIC50 turn out when `C#CCc1c(C)nc(C)nc1N1CCOc2c(C)cc(-c3cnc4sc(N)nc4c3)cc2C1` [Compound 138, 6-[4-(2,6-dimethyl-5-prop-2-yn-1-ylpyrimidin-4-yl)-9-methyl-2,3,4,5-tetrahydro-1,4-benzoxazepin-7-yl][1,3]thiazolo[5,4-b]pyridin-2-amine] was run?
**A.** ≥ 7.00

**Q.** `Cc1cnc(N2CCOc3c(C)cc(-c4cnc5sc(N)nc5c4)cc3C2)nc1N` [Compound 37, 6-[4-(4-amino-5-methylpyrimidin-2-yl)-9-methyl-2,3,4,5-tetrahydro-1,4-benzoxazepin-7-yl][1,3]thiazolo[5,4-b]pyridin-2-amine] was tested. Which pIC50 did it give?
**A.** 6.30 to 7.00

**Q.** `Cc1cc(-c2cnc3sc(N)nc3c2)cc2c1OCCN(c1nc([S+](C)[O-])nc(C)c1C(C)C)C2` (centres unmarked) [Compound 99, 6-{9-methyl-4-[6-methyl-5-(1-methylethyl)-2-(methylsulfinyl)pyrimidin-4-yl]-2,3,4,5-tetrahydro-1,4-benzoxazepin-7-yl}[1,3]thiazolo[5,4-b]pyridin-2-amine] was tested. Which pIC50 did it give?
**A.** ≥ 7.00

**Q.** With `Cc1cc(-c2cnc3sc(N)nc3c2)cc2c1OCCN(c1ncc(C(N)=O)c(N)n1)C2` [Compound 27, 4-amino-2-[7-(2-amino[1,3]thiazolo[5,4-b]pyridin-6-yl)-9-methyl-2,3-dihydro-1,4-benzoxazepin-4(5H)-yl]pyrimidine-5-carboxamide] as the compound, how does the pIC50 read?
**A.** 6.30 to 7.00

**Q.** How did the pIC50 turn out when `CCc1c(C)nc(N)nc1N1CCOc2c(C)cc(-c3cnc4sc(N)nc4c3)cc2C1` [Compound 8, 6-[4-(2-amino-5-ethyl-6-methylpyrimidin-4-yl)-9-methyl-2,3,4,5-tetrahydro-1,4-benzoxazepin-7-yl][1,3]thiazolo[5,4-b]pyridin-2-amine] was run?
**A.** ≥ 7.00

**Q.** How did the pIC50 turn out when `COCCc1c(C)nc(CN2CCCC2)nc1N1CCOc2c(C)cc(-c3cnc4sc(N)nc4c3)cc2C1` [Compound 127, 6-(9-methyl-4-{6-methyl-5-[2-(methyloxy)ethyl]-2-(pyrrolidin-1-ylmethyl)pyrimidin-4-yl}-2,3,4,5-tetrahydro-1,4-benzoxazepin-7-yl)[1,3]thiazolo[5,4-b]pyridin-2-amine] was run?
**A.** ≥ 7.00

**Q.** How did the pIC50 turn out when `Cc1cc(-c2cnc3sc(N)nc3c2)cc2c1OCCN(c1ncccc1C(N)=O)C2` [Compound 39, 2-[7-(2-amino[1,3]thiazolo[5,4-b]pyridin-6-yl)-9-methyl-2,3-dihydro-1,4-benzoxazepin-4(5H)-yl]pyridine-3-carboxamide] was run?
**A.** 6.30 to 7.00

**Q.** `CNCc1nc(C)c(C(C)C)c(N2CCOc3c(C)cc(-c4cnc5sc(N)nc5c4)cc3C2)n1` [Compound 136, 6-(9-methyl-4-{6-methyl-2-[(methylamino)methyl]-5-(1-methylethyl)pyrimidin-4-yl}-2,3,4,5-tetrahydro-1,4-benzoxazepin-7-yl)[1,3]thiazolo[5,4-b]pyridin-2-amine] was tested. Which pIC50 did it give?
**A.** ≥ 7.00

**Q.** With `Cc1cc(-c2cnc3sc(N)nc3c2)cc2c1OCCN(c1nc([C@@H]3CC(F)(F)CN3)nc(C)c1C(C)C)C2` [Compound 147, 6-(4-{2-[(2S)-4,4-difluoropyrrolidin-2-yl]-6-methyl-5-(1-methylethyl)pyrimidin-4-yl}-9-methyl-2,3,4,5-tetrahydro-1,4-benzoxazepin-7-yl)[1,3]thiazolo[5,4-b]pyridin-2-amine] as the compound, how does the pIC50 read?
**A.** ≥ 7.00

**Q.** `Cc1cc(-c2cnc(Cl)c(NS(C)(=O)=O)c2)cc2c1OCCN(c1nc(CNCC(F)F)nc(C)c1C(C)C)C2` [Compound 164, N-(2-chloro-5-{4-[2-{[(2,2-difluoroethyl)amino]methyl}-6-methyl-5-(1-methylethyl)pyrimidin-4-yl]-9-methyl-2,3,4,5-tetrahydro-1,4-benzoxazepin-7-yl}pyridin-3-yl)methanesulfonamide] was tested. Which pIC50 did it give?
**A.** ≥ 7.00

**Q.** `Cc1cc(-c2cnc(Cl)c(NS(C)(=O)=O)c2)cc2c1OCCN(c1nc(N)nc(C)c1C(C)C)C2` [Compound 6, N-(5-{4-[2-amino-6-methyl-5-(1-methylethyl)pyrimidin-4-yl]-9-methyl-2,3,4,5-tetrahydro-1,4-benzoxazepin-7-yl}-2-chloropyridin-3-yl)methanesulfonamide] was tested. Which pIC50 did it give?
**A.** ≥ 7.00

**Q.** With `CSc1nc(Cl)c(C(C)(C)O)c(N2CCOc3c(C)cc(-c4cnc5sc(N)nc5c4)cc3C2)n1` [Compound 114, 2-{4-[7-(2-amino[1,3]thiazolo[5,4-b]pyridin-6-yl)-9-methyl-2,3-dihydro-1,4-benzoxazepin-4(5H)-yl]-6-chloro-2-(methylthio)pyrimidin-5-yl}propan-2-ol] as the compound, how does the pIC50 read?
**A.** 6.30 to 7.00

**Q.** `Cc1cc(-c2cnc(N)c(S(N)(=O)=O)c2)cc2c1OCCN(c1nc(N)nc(C)c1C(C)C)C2` [Compound 5, 2-amino-5-{4-[2-amino-6-methyl-5-(1-methylethyl)pyrimidin-4-yl]-9-methyl-2,3,4,5-tetrahydro-1,4-benzoxazepin-7-yl}pyridine-3-sulfonamide] was tested. Which pIC50 did it give?
**A.** ≥ 7.00

**Q.** How did the pIC50 turn out when `Cc1cc(-c2cccc(O)c2)cc2c1OCCN(c1nc(N)nc(C)c1C(C)C)C2` [Compound 70, 3-{4-[2-amino-6-methyl-5-(1-methylethyl)pyrimidin-4-yl]-9-methyl-2,3,4,5-tetrahydro-1,4-benzoxazepin-7-yl}phenol] was run?
**A.** 6.30 to 7.00

**Q.** `Cc1cc(-c2nnc(N)s2)cc2c1OCCN(c1nc(N)ncc1C(C)C)C2` [Compound 180, 4-[7-(5-amino-1,3,4-thiadiazol-2-yl)-9-methyl-2,3-dihydro-1,4-benzoxazepin-4(5H)-yl]-5-(1-methylethyl)pyrimidin-2-amine] was tested. Which pIC50 did it give?
**A.** ≥ 7.00

— US20140107100A1, “Benzoxazepines as Inhibitors of PI3K/mTOR and Methods of Their Use and Manufacture” (EXELIXIS, INC., priority 2010, published 2014)
